Data as given in paper PMC10786919, “Design-rules for stapled peptides with in vivo activity and their application to Mdm2/X antagonists” (Nature Communications, 2024).
pEC50, pKd: −log10 of the molar value. In brackets after ≈: the same amount, converted by molar mass. Where two headings read alike, the source gives them in different places. Positions of bridges follow the written chain, without caps; N, C: chain ends. Non-standard residues stand in square brackets, D forms with d. Residues, ends and D or L forms follow the SMILES beside them. Lys(N3) = [N-]=[N+]=NCCCC[C@H](N)C(=O)O; R8 = C=CCCCCCC[C@@](C)(N)C(=O)O; Cba = N[C@@H](CC1CCC1)C(=O)O; S5 = C=CCCC[C@](C)(N)C(=O)O; βAla = NCCC(=O)O

Key:
[1] = test system: p53 responsive β-lactamase reporter in HCT116 cells; assay: cells; assay type: cell-based
Method in brief: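 HCT116 cells stably carrying a p53-responsive β-lactamase reporter, seeded at 8000 cells/well, with 0.5% DMSO final. Reporter activity read by ToxBLAzer Dual Screen. Values are geometric means of at least three biological replicates.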

[2] = Solubility assay (kinetic solubility, PBS pH 7); assay type: physicochemical; details: pH 7, PBS; for solubility kinetic: pH 7, aqueous buffer, kinetic from dmso stock, read-out: Solubility
Method in brief: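 Values derive from peak-area ratios of sample versus a 100 µM standard, scaled by that standard's concentration.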

[3] = test system: Jump-In T-REx CHO-K1 BLA cells; assay: cells; assay type: cell-based
human Mdm2 1–125 = target: T1, human Mdm2 1–125 (Homo sapiens, UniProt Q00987); assay: Mdm2 binding by competitive fluorescence anisotropy assay (FP binding); details: read-out: FP binding assay KD
T1 construct: GST (N); His6 (internal); TEV cleavage site (ENLYFQG) (internal); made in house; host or cells: BL21 (DE3) Rosetta T1R Escherichia coli
T1 sequence (Q00987 with tags, fused parts or gaps): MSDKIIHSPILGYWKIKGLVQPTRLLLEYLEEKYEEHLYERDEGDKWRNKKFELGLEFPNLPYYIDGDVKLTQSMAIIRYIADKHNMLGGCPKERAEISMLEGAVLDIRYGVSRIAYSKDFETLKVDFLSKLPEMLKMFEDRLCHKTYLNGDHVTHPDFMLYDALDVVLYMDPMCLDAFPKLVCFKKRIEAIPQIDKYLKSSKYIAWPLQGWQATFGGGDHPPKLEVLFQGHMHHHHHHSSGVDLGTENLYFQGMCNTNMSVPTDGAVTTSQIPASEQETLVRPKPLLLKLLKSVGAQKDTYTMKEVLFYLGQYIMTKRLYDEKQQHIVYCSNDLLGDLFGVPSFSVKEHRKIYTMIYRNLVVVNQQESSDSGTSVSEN

[4] = Lactate dehydrogenase (LDH) release assay; assay type: cell-based
Method in brief: (§1)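 Geometric means of at least three independent biological runs are given for LDH release measured in HCT116 cells stably expressing a p53-driven β-lactamase reporter. Plating density was 8000 cells/well; DMSO in wells was 0.5%.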

[5] = Experimental LogD (partition coefficient); details: for logD: not stated, Partition Coeff LogD
in vitro = details: Nanoclick permeability assay EC50
Method in brief: (§2)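 Azido-peptide permeability was read as loss of NanoBRET signal (donor 450 nm, acceptor 610 nm) after adding NanoBret618-azide at 10 μM final.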

[6] = test system: cells transiently transfected with the NanoLuc-HaloTag vector; assay: Nanoclick permeability assay; details: 4Hr
Method in brief: as §2

[7] = Circular dichroism (CD) helicity; assay type: physicochemical
Method: A total of 5 µL of the 10 mM stock peptide was mixed with 45 µL of 100% methanol, and dried for 2 h in the SpeedVac concentrator (Thermo Scientific). The dried peptide was reconstituted in a buffer (1 mM Hepes pH 7.4 and 5% methanol) to a concentration of 1 mM. The peptide sample was placed in a quartz cuvette with a path length of 0.2 cm. The peptide concentration was determined by the absorbance of the peptide at […]. The CD spectrum was recorded from 300 to 190 nm using the Chirascan-plus qCD machine (Applied Photophysics, Surrey, UK), at 25 °C. All experiments were done in duplicates. The CD spectrum was converted to mean residue ellipticity before deconvolution and estimation of the secondary structure components of the peptide using the CDNN software (distributed by Applied Photophysics). Measurements were taken at least twice and were reported as arithmetic means.

HCT116 cells = assay: Lactate dehydrogenase (LDH) release assay; assay type: cell-based
Method in brief: as §1

EPSA = assay type: physicochemical; details: EPSA
[8] = 0% FBS 4Hr, read-out: p53 reporter assay: EC50
[9] = 10% FBS 4Hr, read-out: p53 reporter assay: EC50
[10] = 10% FBS 16Hr, read-out: p53 reporter assay: EC50
[11] = 0% FBS 4Hr, read-out: TETCHO: Counterscreen EC50
[12] = 10% FBS 4Hr, read-out: TETCHO: Counterscreen EC50
[13] = 10% FBS 16Hr, read-out: TETCHO: Counterscreen EC50
[14] = 0% FBS 4Hr, read-out: LDH: Cytotoxicity assay: EC50
[15] = read-out: Cell EC50 (4 hr, 0% FBS), p53 reporter assay, 4 hr, 0% FBS
[16] = read-out: Cell EC50 (16 hr, 10% FBS), p53 reporter assay, 16 hr, 10% FBS
[17] = 0% FBS 4Hr, read-out: p53 reporter assay EC50

SMILES: CC(=O)N[C@@H](CCCCN)C(=O)NCCCCCC(=O)N[C@H](C(=O)N[C@@H](CO)C(=O)N[C@@H](Cc1ccccc1)C(=O)N[C@]1(C)CCCCCCC=CCCC[C@@](C)(C(N)=O)NC(=O)[C@H](CC(C)C)NC(=O)[C@H](CC(C)C)NC(=O)[C@H](C)NC(=O)[C@H](Cc2c[nH]c3ccccc23)NC(=O)[C@H](Cc2ccc(O)cc2)NC(=O)[C@H](CCC(=O)O)NC1=O)[C@@H](C)O [MP-716]
- p53 reporter assay: % Effect ([1]; 0% FBS 4Hr): 93.75%
- pEC50 [1, 8]: 4.85
- p53 reporter assay: % Effect ([1]; 10% FBS 4Hr): 161.5%
- pEC50 [1, 9]: 4.80
- p53 reporter assay: % Effect ([1]; 10% FBS 16Hr): 18.31%
- pEC50 [1, 10]: < 4.30
- Solubility [2]: Poorly Behaved
- TETCHO: Counterscreen % Effect ([3]; 0% FBS 4Hr): 43.21%
- pEC50 [3, 11]: < 4.30
- TETCHO: Counterscreen % Effect ([3]; 10% FBS 4Hr): 45.82%
- pEC50 [3, 12]: < 4.30
- TETCHO: Counterscreen % Effect ([3]; 10% FBS 16Hr): 13.83%
- pEC50 [3, 13]: < 4.30
- pKd (human Mdm2 1–125): 7.96
- pEC50 ([4]; LDH: Cytotoxicity assay: EC50): < 4.29
- Partition Coeff LogD [5]: Poorly Behaved
- cell entry EC50 (in vitro): > 10 µM
- Nanoclick permeability assay % Effect [6]: 9.756%

SMILES: CC(=O)N[C@@H](CC(C)C)C(=O)N[C@H](C(=O)N[C@@H](Cc1ccccc1)C(=O)N[C@]1(C)CCCCCCC=CCCC[C@@](C)(C(=O)N[C@@H](CO)C(=O)N[C@@H](C)C(=O)N[C@@H](C)C(N)=O)NC(=O)[C@H](CC2CCC2)NC(=O)[C@H](Cc2c[nH]cn2)NC(=O)[C@H](C)NC(=O)[C@H](Cc2c[nH]c3ccccc23)NC(=O)[C@H](Cc2ccc(O)cc2)NC(=O)[C@H](CCC(=O)O)NC1=O)[C@@H](C)O [MP-501, ATSP-7041 (Q8H)]
- pEC50 [1, 8]: 5.60
- pEC50 ([1]; 0% FBS 16Hr, read-out: p53 reporter assay: EC50): 4.54
- TETCHO: Counterscreen % Effect ([3]; 0% FBS 4Hr): 216%
- pEC50 [3, 11]: 4.72
- TETCHO Counterscreen % Effect ([3]; 4 hours, 0% serum, efficacy at 50 μM relative to tetracycline control): 216%
- pEC50 ([3]; 4 hours, 0% serum, read-out: TETCHO Counterscreen EC50): 4.72
- CD % Helicity [7]: 29.1%
- pEC50 [4, 14]: < 4.30
- LDH: Cytotoxicity assay: % Effect (HCT116 cells; 0% FBS 4Hr): 4.045%

SMILES: CC(=O)N[C@@H](CCCCN=[N+]=[N-])C(=O)NCCC(=O)N[C@@H](CC(C)C)C(=O)N[C@H](C(=O)N[C@@H](Cc1ccccc1)C(=O)N[C@]1(C)CCCCCCn2cc(nn2)CCC[C@@](C)(C(=O)N[C@@H](CO)C(=O)N[C@@H](C)C(=O)N[C@@H](C)C(N)=O)NC(=O)[C@H](CC2CCC2)NC(=O)[C@H](CCC(N)=O)NC(=O)[C@H](C)NC(=O)[C@H](Cc2c[nH]c3ccccc23)NC(=O)[C@H](Cc2ccc(O)cc2)NC(=O)[C@H](CCC(=O)O)NC1=O)[C@@H](C)O [MP-707]
- p53 reporter assay: % Effect ([1]; 0% FBS 4Hr): 101.9%
- pEC50 [1, 8]: 5.80
- p53 reporter assay: % Effect ([1]; 10% FBS 16Hr): 63.44%
- pEC50 [1, 10]: 4.87
- pEC50 [1, 15]: 5.80
- pEC50 [1, 16]: 4.87
- TETCHO: Counterscreen % Effect ([3]; 0% FBS 4Hr): -1.105%
- pEC50 [3, 11]: < 4.30
- TETCHO: Counterscreen % Effect ([3]; 10% FBS 16Hr): -2.89%
- pEC50 [3, 13]: < 4.30
- CD % Helicity [7]: 33.95%
- pEC50 [4, 14]: < 4.29
- pEC50 ([4]; 10% FBS 16Hr, read-out: LDH: Cytotoxicity assay: EC50): < 4.29
- LDH: Cytotoxicity assay: % Effect (HCT116 cells; 0% FBS 4Hr): -2.492%
- LDH: Cytotoxicity assay: % Effect (HCT116 cells; 10% FBS 16Hr): 13.49%

SMILES: CC(=O)N[C@@H](CC(C)C)C(=O)N[C@H](C(=O)N[C@@H](Cc1ccccc1)C(=O)N[C@]1(C)CCCCCCC=CCCC[C@@](C)(C(=O)N[C@@H](C)C(=O)N[C@@H](C)C(=O)N[C@@H](C)C(=O)N[C@@H](C)C(=O)N[C@@H](C)C(=O)N[C@@H](C)C(N)=O)NC(=O)[C@H](CC(C)C)NC(=O)[C@H](CCC(N)=O)NC(=O)[C@H](C)NC(=O)[C@H](Cc2c[nH]c3ccccc23)NC(=O)[C@H](Cc2ccc(O)cc2)NC(=O)[C@H](CCC(=O)O)NC1=O)[C@@H](C)O [MP-688] (Ac-LTF[R8]EYWAQL[S5]AAAAAA-NH2; staple 4-11)
- pEC50 [1, 17]: 6.80
- pEC50 ([1]; 10% FBS 16Hr, read-out: p53 reporter assay EC50): 5.87
- pEC50 [1, 15]: 6.80
- pEC50 [1, 16]: 5.89
- pEC50 [3, 11]: < 4.30
- pEC50 [3, 13]: < 4.30
- CD % Helicity [7]: 49.8%
- Aqueous solution helicity ([7]; circular dichroism): 49.8%
- pEC50 ([4]; 0% FBS 4Hr, read-out: LDH: Cytotoxicity assay EC50): < 4.29
- pEC50 ([4]; 10% FBS 16Hr, read-out: LDH: Cytotoxicity assay EC50): < 4.29

SMILES: CC(C)C[C@H](NC(=O)CCNC(=O)[C@H](CCCCN=[N+]=[N-])NC(=O)CNC(=O)[C@H](CC(=O)O)NC(=O)[C@H](CC(C)C)NC(=O)[C@H](CCCCN)NC(=O)[C@@H](NC(=O)[C@H](CCCNC(=N)N)NC(=O)[C@H](CCCCN)NC(=O)[C@H](C)NC(=O)[C@H](C)NC(=O)[C@@H]1CCCN1)C(C)C)C(=O)N[C@H](C(=O)N[C@@H](Cc1ccccc1)C(=O)N[C@]1(C)CCCCCCC=CCCC[C@@](C)(C(=O)N[C@@H](CO)C(=O)N[C@@H](C)C(=O)N[C@@H](C)C(N)=O)NC(=O)[C@H](CC2CCC2)NC(=O)[C@H](CCC(N)=O)NC(=O)[C@H](C)NC(=O)[C@H](Cc2c[nH]c3ccccc23)NC(=O)[C@H](Cc2ccc(O)cc2)NC(=O)[C@H](CCC(=O)O)NC1=O)[C@@H](C)O [MP-879] (H-PAAKRVKLDG[Lys(N3)][βAla]LTF[R8]EYWAQ[Cba][S5]SAA-NH2; staple 16-23)
- pEC50 [1, 17]: 5.62
- pEC50 ([1]; 0% FBS 16Hr, read-out: p53 reporter assay EC50): 5.94
- solubility kinetic [2]: 162 µM (≈ 480 µg/mL)
- TETCHO: Counterscreen % Effect ([3]; 0% FBS 4Hr): 42.86%
- pEC50 [3, 11]: 4.45
- TETCHO: Counterscreen % Effect ([3]; 0% FBS 16Hr): 28.78%
- pEC50 ([3]; 0% FBS 16Hr, read-out: TETCHO: Counterscreen EC50): < 4.30
- pKd (human Mdm2 1–125): 7.41
- pEC50 ([4]; LDH: Cytotoxicity assay EC50): < 4.30
- logD [5]: 2.38
- cell entry EC50 (in vitro): 0.555 µM
- Nanoclick permeability assay % Effect [6]: 134.8%

SMILES: CC(=O)N[C@H](C(=O)N[C@@H](CO)C(=O)N[C@@H](Cc1ccccc1)C(=O)N[C@]1(C)CCCCCCC=CCCC[C@@](C)(C(N)=O)NC(=O)[C@H](CC(C)C)NC(=O)[C@H](CC(C)C)NC(=O)[C@H](C)NC(=O)[C@H](Cc2c[nH]c3ccccc23)NC(=O)[C@H](Cc2ccc(O)cc2)NC(=O)[C@H](CCC(=O)O)NC1=O)[C@@H](C)O [MP-090]
- EPSA (EPSA): 201 A^2
- p53 reporter assay: % Effect ([1]; 0% FBS 4Hr): 110.7%
- pEC50 [1, 8]: 5.19
- p53 reporter assay: % Effect ([1]; 10% FBS 4Hr): 88.51%
- pEC50 [1, 9]: 4.58
- p53 reporter assay: % Effect ([1]; 10% FBS 16Hr): 4.432%
- pEC50 [1, 10]: < 4.30
- solubility kinetic [2]: 77 µM (≈ 113 µg/mL)
- TETCHO: Counterscreen % Effect ([3]; 0% FBS 4Hr): 137.4%
- pEC50 [3, 11]: 4.67
- TETCHO: Counterscreen % Effect ([3]; 10% FBS 4Hr): 106.1%
- pEC50 [3, 12]: 4.50
- TETCHO: Counterscreen % Effect ([3]; 10% FBS 16Hr): 108.5%
- pEC50 [3, 13]: 4.48
- pEC50 ([4]; LDH: Cytotoxicity assay: EC50): < 4.29
- pEC50 (HCT116 cells): 4.30
- logD [5]: 2.69
- cell entry EC50 (in vitro): > 10 µM
- Nanoclick permeability assay % Effect [6]: 42.09%
